We go through two molecules from publication PMC6120238, “Crystal structure of the retroviral protease‐like domain of a protozoal DNA damage‐inducible 1 protein” (FEBS Open Bio, 2018).

In test [1] the target is T1, LmDdi1_1–390 (LmDdi1) (Leishmania major, UniProt I7HUG0).
T1 construct: gene DDI1; full-length residues 1-390 (UBL, RVP and UBA domains), synthetic gene 1170 bp, N-terminal His6 tag (pET-28a, NdeI/HindIII), E. coli BL21; Ni-NTA and gel filtration; immobilised by the tag on Ni-NTA sensor; RVP domain homodimer in crystal; PDB 5YS4 from this construct, 5YQ8 from construct 184-390
T1 sequence (I7HUG0 1-390): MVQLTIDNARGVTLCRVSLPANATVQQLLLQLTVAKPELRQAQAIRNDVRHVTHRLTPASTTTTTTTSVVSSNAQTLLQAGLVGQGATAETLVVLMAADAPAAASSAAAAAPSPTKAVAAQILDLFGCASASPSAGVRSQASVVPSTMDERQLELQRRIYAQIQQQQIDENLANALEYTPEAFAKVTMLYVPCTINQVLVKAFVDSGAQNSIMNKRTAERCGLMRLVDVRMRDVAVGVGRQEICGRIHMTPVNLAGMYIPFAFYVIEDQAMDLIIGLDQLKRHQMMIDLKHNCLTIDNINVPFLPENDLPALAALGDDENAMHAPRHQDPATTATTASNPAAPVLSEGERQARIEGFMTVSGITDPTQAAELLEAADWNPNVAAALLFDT
Nature of the test: bio-layer interferometry, protein on Ni-NTA sensor, […] Langmuir global fit. As to conditions: 20 mM MES pH 6.0, 200 mM NaCl, 1% DMSO; inhibitor 75-600 μM; weak signal, affinity could not be quantified. The class given is binding.

In test [2] the target is T1, LmDdi1_1–390 (LmDdi1). Described as above. Type of test: binding.

As to `Cc1c(O)cccc1C(=O)N[C@@H](CSc1ccccc1)[C@H](O)CN1C[C@H]2CCCC[C@H]2C[C@H]1C(=O)NC(C)(C)C` [nelfinavir], the “bio-layer interferometry, protein on Ni-NTA sensor, 1:1 Langmuir global fit” value at LmDdi1_1–390 (LmDdi1) [1] is “Nelfinavir showed much less binding, and the binding affinity could not be quantified”.
For the molecule `CC(C)(C)NC(=O)[C@@H]1C[C@@H]2CCCC[C@@H]2CN1C[C@@H](O)[C@H](Cc1ccccc1)NC(=O)[C@H](CC(N)=O)NC(=O)c1ccc2ccccc2n1` [saquinavir], at LmDdi1_1–390 (LmDdi1) [2], the Kd worked out at 314 ± 12.8 µM.
